Laboratory results: PMC10287695, “Non-covalent inhibitors of thioredoxin glutathione reductase with schistosomicidal activity in vivo” (Nature Communications, 2023)
Read-outs that look alike come from different tables or passages of the source. Marks after values point to notes of the source that are not given here.

Tests used:
[1] = system: S. mansoni newly transformed schistosomula (NTS); test: Schistosomicidal activity ex vivo, NTS (Cell Titer Glo); format: cell-based; conditions: for LD50 ex vivo S. mansoni NTS: 24 h exposure, Cell TiterGlo
Experimental: Oncomelania hupensis subsp. hupensis, Chinese strain, infected with S. japonicum, Chinese strain, and Biomphalaria glabrata, strain NMRI, infected with S. mansoni, strain NMRI, were provided by the NIAID Schistosomiasis Resource Center for distribution through BEI Resources, NIAID, NIH. After infections were patent, snails were exposed to bright light for 1 hr to obtain cercariae. Cercariae were mechanically transformed to schistosomula. Briefly, cercariae were placed on ice for 30 min and then centrifuged at 350 × g for 10 mins. The supernatant was decanted and 2 ml of serum-free M199 medium was added to cercarial pellets and vortexed for 1 min until cercarial tails were detached. NTS were purified by layering on 4 °C Percoll gradient suspension containing Eagle’s minimum essential medium, penicillin-streptomycin (10,000 U per ml penicillin/10,000 U per ml streptomycin), and 1 M HEPES in 0.85% NaCl with cercariae suspension and centrifuged at 500 × g for 15 min. Cercarial pellets were resuspended and washed thrice in serum-free M199 medium and collected at 100 × g for 5 min. NTS (240) were transferred to U-bottom 96 well assay plates containing 200 µl of M199 medium supplemented with 5.5 mM D-glucose, penicillin-streptomycin and 5% heat inactivated fetal bovine serum and incubated at 37 °C in a 5% CO2 incubator overnight.
(§1) DMSO formulated compounds were diluted with phenol red free M199 medium or RPMI medium for NTS or juvenile and adult worms, respectively, at <1% DMSO final concentrations. NTS, juvenile and adult worms from overnight cultures were tested against compounds in triplicate. Controls were treated with DMSO alone or 5 µM AF as a positive control in appropriate medium. Worm viability was assessed at 24 or 72 h by measuring ATP content of worms using Cell Titer Glo Assay (Promega) as described. Schistosome viabilities in the presence of the compounds were assessed using this formula: % Viability = Averages of Test / Averages of DMSO Control x 100.

S. mansoni TGR = target: T1, S. mansoni TGR (Schistosoma mansoni, UniProt Q962Y6); test: S. mansoni TGR enzyme inhibition (DTNB reduction); format: biochemical; conditions: for IC50: 15 min preincubation (enzyme + 100 µM NADPH + compound); for inhibition at 15 µM: compound 15 µM; for inhibition at 30 µM: compound 30 µM
T1 construct: made in house
T1 sequence (Q962Y6 1-598): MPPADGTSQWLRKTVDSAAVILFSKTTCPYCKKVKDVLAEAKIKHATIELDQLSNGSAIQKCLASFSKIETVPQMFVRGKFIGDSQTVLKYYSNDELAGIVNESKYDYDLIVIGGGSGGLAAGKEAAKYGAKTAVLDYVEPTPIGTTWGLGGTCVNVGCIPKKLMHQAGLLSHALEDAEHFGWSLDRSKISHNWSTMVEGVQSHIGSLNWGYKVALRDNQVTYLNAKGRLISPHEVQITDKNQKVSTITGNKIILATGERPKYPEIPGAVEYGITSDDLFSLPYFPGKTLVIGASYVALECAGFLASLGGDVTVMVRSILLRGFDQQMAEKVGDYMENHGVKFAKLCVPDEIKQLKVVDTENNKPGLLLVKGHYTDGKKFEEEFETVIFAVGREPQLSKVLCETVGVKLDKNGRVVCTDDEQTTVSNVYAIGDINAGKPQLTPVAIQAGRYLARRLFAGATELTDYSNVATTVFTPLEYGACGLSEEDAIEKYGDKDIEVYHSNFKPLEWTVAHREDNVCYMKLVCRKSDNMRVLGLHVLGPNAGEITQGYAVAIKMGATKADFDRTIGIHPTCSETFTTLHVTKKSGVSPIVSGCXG

Vero cells = test: Cytotoxicity in mammalian cells (Cell Titer Glo); format: cell-based; conditions: for LD50 ex vivo VERO: African green monkey, 24 h; for EC50: Chlorocebus sabaeus, Vero, estimate from raw data, read-out: EC50 viability of Vero cells
Experimental: Following overnight incubation, formulated DMSO-compound stock solutions were diluted with DMEM at <1% DMSO final concentrations. […] Vero cells treated similarly with different concentrations of PZQ, MZM and AF (Cayman Chemicals) were used as positive controls.

S. mansoni adult worms = test: Schistosomicidal activity ex vivo, adult worms (Cell Titer Glo), alone or with channel blockers; format: cell-based; conditions: for LD50 ex vivo S. mansoni adult: 24 h exposure, compound alone; for viability at 5 µM / viability at 10 µM / viability at 25 µM / viability at 35 µM: Schistosoma mansoni, S. mansoni adult worms; for viability at 5 µM: Conc. 5 µM; for viability at 5 µM / viability at 10 µM / viability at 25 µM: read-out: % viability; for viability at 10 µM: Conc. 10 µM; for viability at 25 µM: Conc. 25 µM; for viability at 35 µM: Conc. 35 µM
Experimental: Three-week old, female Swiss-Webster mice obtained from the Charles River were housed in the Comparative Research Center of Rush University Medical Center. Mice were infected by percutaneous tail exposure to about 200 S. mansoni or 50 S. japonicum cercaria for adult worms and about 1000 cercaria for juvenile S. mansoni worms through natural transdermal penetration of the cercariae for 1 h[81].
as §1, with “Worm viability was assessed at 24 or 72 h by measuring ATP content of worms using Cell Titer Glo Assay (Promega) as described.” left out

[2] = Schistosoma mansoni, 72 h, read-out: % viability, S. mansoni NTS
[3] = 6 h preincubation (enzyme + 100 µM NADPH + compound), read-out: S. mansoni TGR inhibition (%) at 66.7 µM
[4] = TGR, 15 minutes pre-incubation, read-out: % inhibition
[5] = TGR, 6 hours pre-incubation, read-out: % inhibition

SMILES: Cc1oc(-c2ccc3c(c2)OCO3)nc1CN[C@@H]1C[C@@H]2C[C@H]([C@H]1C)C2(C)C [Compound 1]
- LD50 ex vivo S. mansoni NTS [1]: 5.9 ± 0.25 µM
- LD50 NTS after 72 h exposure [1]: 2.2 ± 0.19 µM
- viability at 1 µM ([1]; Schistosoma mansoni): 89.9%
- viability at 5 µM ([1]; Schistosoma mansoni): 52.7%
- viability at 15 µM ([1]; Schistosoma mansoni): 30%
- viability at 30 µM ([1]; Schistosoma mansoni): 24.6%
- viability at 50 µM ([1]; Schistosoma mansoni): 17.6%
- viability at 0.25 µM [1, 2]: 92.1%
- viability at 1 µM [1, 2]: 71.2%
- viability at 3 µM [1, 2]: 48.1%
- viability at 6 µM [1, 2]: 23.4%
- IC50 (S. mansoni TGR): > 66.7 µM
- inhibition at 66.7 µM (S. mansoni TGR; [3]): 42.1%
- inhibition at 15 µM (S. mansoni TGR; [4]): 5.86%
- inhibition at 30 µM (S. mansoni TGR; [4]): 10%
- inhibition at 15 µM (S. mansoni TGR; [5]): 7.78%
- inhibition at 30 µM (S. mansoni TGR; [5]): 21.1%
- LD50 ex vivo VERO (Vero cells): >75.5^a µM
- EC50 (Vero cells): > 200 µM
- LD50 ex vivo S. mansoni adult (S. mansoni adult worms): 12.3 ± 1.30 µM
- viability at 5 µM (S. mansoni adult worms): 77.3%
- viability at 10 µM (S. mansoni adult worms): 58.4%
- viability at 25 µM (S. mansoni adult worms): 0.888%
- viability at 35 µM (S. mansoni adult worms): 0.238%

SMILES: CCc1ccccc1-c1nc(CN[C@@H]2C[C@@H]3C[C@H]([C@H]2C)C3(C)C)c(C)o1 [Compound 2]
- LD50 ex vivo S. mansoni NTS [1]: 0.6 ± 0.21 µM
- LD50 NTS after 72 h exposure [1]: 0.18 ± 0.007 µM
- viability at 1 µM ([1]; Schistosoma mansoni): 47.9%
- viability at 5 µM ([1]; Schistosoma mansoni): 0.373%
- viability at 15 µM ([1]; Schistosoma mansoni): 0.0945%
- viability at 30 µM ([1]; Schistosoma mansoni): 0.0764%
- viability at 50 µM ([1]; Schistosoma mansoni): 0.0707%
- viability at 0.125 µM [1, 2]: 65%
- viability at 0.25 µM [1, 2]: 40.4%
- viability at 0.5 µM [1, 2]: 3.04%
- viability at 1 µM [1, 2]: 0.411%
- IC50 (S. mansoni TGR): > 66.7 µM
- inhibition at 66.7 µM (S. mansoni TGR; [3]): 28.7%
- inhibition at 15 µM (S. mansoni TGR; [4]): 4.35%
- inhibition at 30 µM (S. mansoni TGR; [4]): 8.85%
- inhibition at 66.7 µM (S. mansoni TGR; TGR, 15 minutes pre-incubation, compound 66.7 µM, read-out: % inhibition): 12.5%
- inhibition at 15 µM (S. mansoni TGR; [5]): 12.1%
- inhibition at 30 µM (S. mansoni TGR; [5]): 14.6%
- inhibition at 66.7 µM (S. mansoni TGR; TGR, 6 hours pre-incubation, compound 66.7 µM, read-out: % inhibition): 28.7%
- LD50 ex vivo VERO (Vero cells): 54.7 ± 6.65 µM
- EC50 (Vero cells): > 50 µM
- LD50 ex vivo S. mansoni adult (S. mansoni adult worms): 12.5 ± 0.40 µM
- viability at 5 µM (S. mansoni adult worms): 86.9%
- viability at 10 µM (S. mansoni adult worms): 59.5%
- viability at 25 µM (S. mansoni adult worms): 0.114%
- viability at 35 µM (S. mansoni adult worms): 0.0801%

SMILES: Cc1oc(-c2ccccc2)nc1CN[C@@H]1C[C@@H]2C[C@H]([C@H]1C)C2(C)C [Compound 3]
- LD50 ex vivo S. mansoni NTS [1]: 4.3 ± 0.20 µM
- IC50 (S. mansoni TGR): > 66.7 µM
- inhibition at 66.7 µM (S. mansoni TGR; [3]): 45%
- LD50 ex vivo VERO (Vero cells): 36.1 ± 3.0 µM
- EC50 (Vero cells): > 50 µM
- LD50 ex vivo S. mansoni adult (S. mansoni adult worms): 12.1 ± 2.44 µM

SMILES: Cc1oc(C2CCCCC2)nc1CN[C@@H]1C[C@@H]2C[C@H]([C@H]1C)C2(C)C [Compound 4]
- LD50 ex vivo S. mansoni NTS [1]: 0.85 ± 0.11 µM
- IC50 (S. mansoni TGR): > 66.7 µM
- inhibition at 66.7 µM (S. mansoni TGR; [3]): 68.6%
- LD50 ex vivo VERO (Vero cells): >50^a µM
- LD50 ex vivo S. mansoni adult (S. mansoni adult worms): 12.6 ± 1.86 µM
